Patent publication EP1018866B1, “COMPOSITIONS AND METHODS FOR THE PRESERVATION OF LIVING TISSUES” (Biostore New Zealand Limited, priority 1996, dated 1997)

Test system: mouse embryos
Assay: Storage of mouse embryos in Solution 70/30 at 4 °C with or without sodium butyrate pretreatment
Type: cell-based
Description: Mouse embryos were incubated with either sodium butyrate or a Class II solute at either room temperature, 30 °C or 4 °C prior to storage in Solution 70/30 for up to five days at 4 °C. […] Sodium butyrate replaced sodium chloride at the same concentration in PBS.

CCCC(=O)[O-].[Na+] [sodium butyrate]
embryos hatched (pretreatment with higher concentrations of sodium butyrate, 5 days of storage in Solution 70/30): up to 70% | embryos to hatch (pretreatment with sodium butyrate, three days of storage in Solution 70/30 at 4 °C): up to 80%
